Results published in patent US20140371070A1, “PLANT GROWTH REGULATING COMPOUNDS” (Syngenta Participations AG, priority 2011, published 2014).

Row | SMILES | melting point [°C]
1 | CC1(CCOC(=O)CCC(=O)Nc2ccc(Br)cn2)OCCO1 [Compound A43, 2-(2-methyl-1,3-dioxolan-2-yl)ethyl 4-[(5-bromo-2-pyridyl)amino]-4-oxo-butanoate] | 97 to 98
2 | O=C(CCC(=O)OCCCC(F)(F)F)Nc1ccc(Br)cn1 | 118 to 119
